Measured values as given in PMC11915801, “Evolutionary trajectory of bacterial resistance to antibiotics and antimicrobial peptides in Escherichia coli” (mSystems, 2025).

Columns and labels:
Assay in all cases: microbe, parasite or virus in culture
Format in all cases: cell-based, Escherichia coli
E. coli K-12 MG1655 = conditions: for evolution of resistance in MG1655 (in words): MG1655, sub-inhibitory drug in MH broth over 60 days; for MIC of MG1655 under the pressure of the same drug, generation 20 / MIC of MG1655 under the pressure of the same drug, generation 30 / MIC of MG1655 under the pressure of the same drug, generation 40 / MIC of MG1655 under the pressure of the same drug, generation 50 / MIC of MG1655 under the pressure of the same drug, generation 60 / MIC of MG1655 under the pressure of the same drug, generation 70 / MIC of MG1655 under the pressure of the same drug, generation 80 / MIC of MG1655 under the pressure of the same drug, generation 90 / MIC of MG1655 under the pressure of the same drug, generation 100 / MIC of MG1655 under the pressure of the same drug, generation 110 / MIC of MG1655 under the pressure of the same drug, generation 120: as E2; for MIC of MG1655 under the pressure of the same drug, generation primary: broth microdilution (CLSI), primary MG1655 before passage; for MIC of MG1655 under the pressure of the same drug, generation 10: broth microdilution, line passaged in MH broth with sub-inhibitory drug, 12 h per passage, 37℃
Description: (§1) The broth microdilution method was used to measure the MIC values of antibiotics and peptides according to the Clinical and Laboratory Standards Institute guidelines. The MIC value is defined as the lowest drug concentration without visible bacteria.
Eight antibiotics and ten AMPs at the sub-inhibitory concentration were prepared. A 300-µL system, including 260 µL of MH broth, 30 µL of prepared drug, and 10 µL of bacterial culture, was used for resistance passages. After 12 h of incubation at 37℃ and 200 rpm, 10 µL of the above bacterial culture was added into the new sterile drug-containing broth. MIC values of bacterial culture were determined. The drug concentration was adjusted according to the MIC value change until the end of the 120 passages.

AMP120 (evolved MG1655) = conditions: for MIC values of evolved MG1655, strain AMP120: broth microdilution, ampicillin-evolved strain
From the text: (§2) To ensure the stable resistance evolution and inheritance of MG1655 under different drugs, we randomly selected three monoclonals from the evolved strains. The final antibiotic-evolved strains were designated as AMP120, AZI120, CHL80, CIP120, DOX120, KAN80, NIT70, and TMP30, while the final AMP-evolved strains were named COL120, Ind120, Omi120, Pex120, PGLA120, Pleu120, R8120, SAAP120, LI120, and SLAP120.
as §1

AZI120 (evolved MG1655) = conditions: broth microdilution; azithromycin-evolved strain
From the text: as §2, §1

CHL80 (evolved MG1655) = conditions: broth microdilution; chloramphenicol-evolved strain
From the text: as §2, §1

CIP120 (evolved MG1655) = conditions: broth microdilution; ciprofloxacin-evolved strain
From the text: as §2, §1

COL120 (evolved MG1655) = conditions: broth microdilution; colistin-evolved strain
From the text: as §2, §1

DOX120 (evolved MG1655) = conditions: broth microdilution; doxycycline-evolved strain
From the text: as §2, §1

KAN80 (evolved MG1655) = conditions: broth microdilution; kanamycin-evolved strain
From the text: as §2, §1

NIT70 (evolved MG1655) = conditions: broth microdilution; nitrofurantoin-evolved strain
From the text: as §2, §1

TMP30 (evolved MG1655) = conditions: broth microdilution; trimethoprim-evolved strain
From the text: as §2, §1

Substance	evolution of resistance in MG1655 (in words) (E. coli K-12 MG1655)	MIC of MG1655 under the pressure of the same drug, generation 20 (E. coli K-12 MG1655)	MIC of MG1655 under the pressure of the same drug, generation 30 (E. coli K-12 MG1655)	MIC of MG1655 under the pressure of the same drug, generation 40 (E. coli K-12 MG1655)	MIC of MG1655 under the pressure of the same drug, generation 50 (E. coli K-12 MG1655)	MIC of MG1655 under the pressure of the same drug, generation 60 (E. coli K-12 MG1655)	MIC of MG1655 under the pressure of the same drug, generation 70 (E. coli K-12 MG1655)	MIC of MG1655 under the pressure of the same drug, generation 80 (E. coli K-12 MG1655)	MIC of MG1655 under the pressure of the same drug, generation 90 (E. coli K-12 MG1655)	MIC of MG1655 under the pressure of the same drug, generation 100 (E. coli K-12 MG1655)	MIC of MG1655 under the pressure of the same drug, generation 110 (E. coli K-12 MG1655)	MIC of MG1655 under the pressure of the same drug, generation 120 (E. coli K-12 MG1655)	MIC of MG1655 under the pressure of the same drug, generation primary (E. coli K-12 MG1655)	MIC of MG1655 under the pressure of the same drug, generation 10 (E. coli K-12 MG1655)	MIC values of evolved MG1655, strain AMP120 (AMP120 (evolved MG1655))	MIC values of evolved MG1655, strain AZI120 (AZI120 (evolved MG1655))	MIC values of evolved MG1655, strain CHL80 (CHL80 (evolved MG1655))	MIC values of evolved MG1655, strain CIP120 (CIP120 (evolved MG1655))	MIC values of evolved MG1655, strain COL120 (COL120 (evolved MG1655))	MIC values of evolved MG1655, strain DOX120 (DOX120 (evolved MG1655))	further results
AC-Dab-Ile-Dab-Ile-Dab-D-Phe-Leu-Dab-D-Val-Leu-Ala-NH2 [SLAP, SLAP-S25, short-linear AMP]	marginal increase in resistance	8 µg/mL	8 µg/mL	8 µg/mL	16 µg/mL	16 µg/mL	16 µg/mL	32 µg/mL	32 µg/mL	32 µg/mL	64 µg/mL	64 µg/mL	4 µg/mL	4 µg/mL	1 µg/mL	32 µg/mL	2 µg/mL	2 µg/mL	8 µg/mL	2 µg/mL	collateral sensitivity of AMP120 (fold change of MIC vs wild-type MG1655) (AMP120 (evolved MG1655); MIC of AMP120 compared with MG1655): exceeding fourfold; MIC values of evolved MG1655, strain KAN80 (KAN80 (evolved MG1655)): 2 µg/mL; MIC values of evolved MG1655, strain NIT70 (NIT70 (evolved MG1655)): 2 µg/mL; MIC values of evolved MG1655, strain TMP30 (TMP30 (evolved MG1655)): 4 µg/mL
Fatty acyl-Dab-Thr-Dab-Dab-Dab-D-Leu-Leu-Dab-Dab-Thr [COL, Colistin, cationic lipopeptide antibiotic (polymyxin), source microorganism]	marginal increase in resistance	0.125 µg/mL	0.25 µg/mL	0.25 µg/mL	0.5 µg/mL	0.5 µg/mL	0.5 µg/mL	0.5 µg/mL	0.5 µg/mL	0.5 µg/mL	0.5 µg/mL	0.5 µg/mL	0.125 µg/mL	0.125 µg/mL	0.5 µg/mL	0.5 µg/mL	0.25 µg/mL	0.5 µg/mL	0.5 µg/mL	0.25 µg/mL	MIC values of evolved MG1655, strain KAN80 (KAN80 (evolved MG1655)): 0.5 µg/mL; MIC values of evolved MG1655, strain NIT70 (NIT70 (evolved MG1655)): 0.5 µg/mL; MIC values of evolved MG1655, strain TMP30 (TMP30 (evolved MG1655)): 0.5 µg/mL
